# Literature values in patent publication US20250375404A1, “AN ORODISPERSIBLE PHARMACEUTICAL COMPOSITION OF BACLOFEN AND ITS PROCESS OF PREPARATION” (NOVUMGEN LIMITED, priority 2022, published 2025).
# Details: in vivo
structure (smiles),measurement,value
NCC(CC(=O)O)c1ccc(Cl)cc1 (stereo not shown) [Baclofen],Absorption from the gastro-intestinal tract,rapidly and completely absorbed
